The nature of series [1]: Dynamic Vapor Sorption (DVS). The note with it: for hygroscopicity of the material (DVS): 25° C.; for Post-DVS analysis by XRPD: after DVS cycle at 25° C. The class given is physicochemical. As for the experimental part: DVS data was collected on a Vsorp Dynamic Moisture Sorption Analyzer (ProUmid GmbH & Co. KG, Germany). The sample was placed into a tared sample chamber and automatically weighed. • Sample temperature: 25° C. • Cycle: Full cycle • Adsorption: 0, 10, 20, 30, 40, 50, 60, 70, 80, 90 • Desorption: 80, 70, 60, 50, 40, 30, 20, 10, 0 • Characterize the sample after the DVS experiment by XRPD
Alternatively, DVS analysis was carried out using a Surface Measurement System DVS Intrinsic analyzer. The instrument was calibrated with standard weights. Approximately 15-20 mg of sample was loaded into a pan for analysis. The sample was analyzed at 25° C. in 10% relative humidity (RH) steps from 50% to 95% RH (adsorption cycle), from 95% to 0% RH (desorption cycle), and from 0% to 50% RH (adsorption cycle). The movement from one step to the next occurred either after satisfying the equilibrium criterion of 0.002% weight change (dm/dt) or, if the equilibrium criterion was not met, after ten hours. Samples after the DVS test were tested by XRPD.

Series [2] is described as follows: Stability test of Compound 1 adipate, Form 1 (HPLC purity and XRPD after storage). The series is classed as physicochemical. The note with it: for XRPD (crystal form at day 7): after 7 days storage. As for the experimental part:
Samples were prepared in duplicate for each condition. At day 7, the samples were analyzed by HPLC and XRPD to check the purity and the crystal form, respectively.

The nature of series [3]: Pharmacokinetics following oral administration in male cynomolgus monkeys. The class given is in vivo. The note with it: for AUC/Dose: in ng·h/mL per mg/kg; for Cmax: read-out: C0/Cmax. As for the experimental part:
The gavage tube was flushed with 5 mL of vehicle after administration of the dose. Plasma samples were collected at the following time points: 15 min, 30 min, 1 hr, 2 hr, 4 hr, 6 hr, 8 hr and 24 hr postdose. The concentrations of Compound 1 were determined in plasma.

Series [4] can be described thus: Competitive slurry experiments of Compound 1 adipate, Forms 1, 2 and 3. The class given is physicochemical. The note with it: from the competitive slurry experiments. As for the experimental part: The resulting solid was collected by filtration and analyzed by XRPD.
A mixed sample of Compound 1 adipate, […] and Compound 1 adipate, Form 2 was suspended in solvents (40 mg, 0.5 mL) and stirred at 50° C. for 1 h. The resulting solid was collected by filtration and analyzed by XRPD.

Setting [5] is: male, cynomolgus monkey, plasma, po, 50 mg/kg, PO BID, 50 mg/kg BID.

Where “and” joins values, the source holds several entries; their conditions need not be identical. Equal entries are not always repeated. Structures can show the parent of a compound that is named as a salt. Where two headings read alike, the source gives them in different places.

On to `CNc1cc(Nc2cc(F)cc3c2OCCO3)nc2c(NC(=O)N[C@@H]3C[C@@H]3F)cnn12` [Compound 1 adipate, Form 1, 1-(5-((7-fluoro-2,3-dihydrobenzo[b][1,4]dioxin-5-yl)amino)-7-(methylamino)pyrazolo[1,5-a]pyrimidin-3-yl)-3-((1R,2S)-2-fluorocyclopropyl)urea adipate], for which, in series [1], the “hygroscopicity of the material (DVS)” value is “non-hygroscopic”. Besides, the “water uptake (DVS)” value in series [1] (80% RH and 25° C.) is listed as “less than 0.2%”. In series [1], the “Post-DVS analysis by XRPD” value is listed as “no change”. Moreover, the HPLC purity in series [2] (40° C./75% RH (open) @ 7 d, duplicate, batch from DMSO/EtOAc/EtOH) was 99.75 and 99.86; in series [2] (40° C./75% RH (open) @ 7 d, duplicate, batch from DMSO/EtOH/Water), 99.64 and 99.65; in series [2] (40° C./75% RH (open) @ 7 d, duplicate, batch from acetone/water (19/1)), 99.43 and 99.44; in series [2] (60° C./capped @ 7 d, duplicate, batch from DMSO/EtOAc/EtOH), 99.85 and 99.82; in series [2] (60° C./capped @ 7 d, duplicate, batch from DMSO/EtOH/Water) it was 99.65/99.65; in series [2] (60° C./capped @ 7 d, duplicate, batch from acetone/water (19/1)), 99.44/99.44. Besides, the HPLC purity in series [2] (Day 0, batch from DMSO/EtOAc/EtOH (Example 13Ac)) was determined as 99.86; in series [2] (Day 0, batch from DMSO/EtOH/Water (Example 13Ad)) it was 99.66; in series [2] (Day 0, batch from acetone/water (19/1) (Example 13Ab)) it was 99.49. For the same compound, the “physical and chemical stability” value in series [2] (60° C. (capped) and 40° C./75% RH (open) for 1 week) is “both physically and chemically stable”. The “XRPD (crystal form at day 7)” value in series [2] (batch from DMSO/EtOAc/EtOH) is reported as “Adipate, Form 1”; in series [2] (batch from DMSO/EtOH/Water) it was “Adipate, Form 1”; in series [2] (batch from acetone/water (19/1)) it was “Adipate, Form 1”. The “% F (oral bioavailability)” value in series [3] (PO, 5 mg/kg, Form 1, 5 mg/kg) was 33.6%. The AUClast in series [3] (PO, 5 mg/kg, Form 1, 5 mg/kg) turned out to be 2347 ng·h/mL. Further, in series [3] (PO, 5 mg/kg, Form 1, 5 mg/kg), the C0/Cmax came to 672 ng/mL. Moreover, the Tmax was 2.67 h in series [3] (PO, 5 mg/kg, Form 1, 5 mg/kg) and 4.67 h in series [3] (male, cynomolgus monkey, plasma, po, 100 mg/kg, PO, 100 mg/kg, read-out: Tmax). The AUC/Dose stood at 469 in series [3] (PO, 5 mg/kg, Form 1, 5 mg/kg) and 1083 in series [3] (PO, 100 mg/kg). Further, the half-life in series [3] (cynomolgus monkey, plasma, PO, 5 mg/kg) is 2.66 h. Further, the AUC(0-t) in series [3] (male, cynomolgus monkey, plasma, po, 100 mg/kg) was 108000 ng·h/mL. Moreover, the Cmax in series [3] (male, cynomolgus monkey, plasma, po, 100 mg/kg, PO, 100 mg/kg) came out at 9770 ng/mL. Further, in series [3] (oral gavage, Table 9), the “PK compared to Compound 1 free base, Form A” value was “faster Tmax and higher AUC”. In addition, the “PK compared to Compound 1 oxalate, Form 1” value in series [3] (oral gavage, Table 10) was “faster Tmax, higher AUC, and higher oral bioavailability (% F)”. Besides, the “relative stability among the three Compound 1 adipate forms” value in series [4] was “most stable form”.
As to `CNc1cc(Nc2cc(F)cc3c2OCCO3)nc2c(NC(=O)N[C@@H]3C[C@@H]3F)cnn12` [Compound 1 mesylate, Form 1, 1-(5-((7-fluoro-2,3-dihydrobenzo[b][1,4]dioxin-5-yl)amino)-7-(methylamino)pyrazolo[1,5-a]pyrimidin-3-yl)-3-((1R,2S)-2-fluorocyclopropyl)urea], the “water uptake (DVS)” value in series [1] (95% RH and 25° C.) was found to be 2.65%. The “Post-DVS analysis by XRPD” value in series [1] was “no change”.
As for `CNc1cc(Nc2cc(F)cc3c2OCCO3)nc2c(NC(=O)N[C@@H]3C[C@@H]3F)cnn12` [Compound 1 oxalate, Form 1, 1-(5-((7-fluoro-2,3-dihydrobenzo[b][1,4]dioxin-5-yl)amino)-7-(methylamino)pyrazolo[1,5-a]pyrimidin-3-yl)-3-((1R,2S)-2-fluorocyclopropyl)urea], in series [1], the “hygroscopicity of the material (DVS)” value was “slightly hygroscopic” and the “Post-DVS analysis by XRPD” value is “no change”. In addition, the “water uptake (DVS)” value in series [1] (80% RH and 25° C.) is listed as 0.37%. In addition, in series [3] (PO, 5 mg/kg, Form 1, 5 mg/kg), the C0/Cmax was 103 ng/mL and the AUC/Dose was found to be 302. For the same compound, the AUC(0-t) in series [3] (male, cynomolgus monkey, plasma, po, 5 mg/kg) was 1510 ng·h/mL. The bioavailability in series [3] (male, cynomolgus monkey, plasma, po, 5 mg/kg, PO, 5 mg/kg, read-out: % F (oral bioavailability)) stood at 21.6%. Also, in series [3] (male, cynomolgus monkey, plasma, po, 5 mg/kg, PO, 5 mg/kg, read-out: Tmax), the Tmax worked out at 4.67 h.
`CNc1cc(Nc2cc(F)cc3c2OCCO3)nc2c(NC(=O)N[C@@H]3C[C@@H]3F)cnn12` [Compound 1 phosphate, Form 1, 1-(5-((7-fluoro-2,3-dihydrobenzo[b][1,4]dioxin-5-yl)amino)-7-(methylamino)pyrazolo[1,5-a]pyrimidin-3-yl)-3-((1R,2S)-2-fluorocyclopropyl)urea]: in series [1], the “hygroscopicity of the material (DVS)” value is given as “slightly hygroscopic” and the “Post-DVS analysis by XRPD” value was “no change”. Besides, the “water uptake (DVS)” value in series [1] (80% RH and 25° C.) came out at 1.20%.
For `CNc1cc(Nc2cc(F)cc3c2OCCO3)nc2c(NC(=O)N[C@@H]3C[C@@H]3F)cnn12` [Compound 1, Form A, 1-(5-((7-fluoro-2,3-dihydrobenzo[b][1,4]dioxin-5-yl)amino)-7-(methylamino)pyrazolo[1,5-a]pyrimidin-3-yl)-3-((1R,2S)-2-fluorocyclopropyl)urea], in series [1] (95% RH and 25° C.), the “water uptake (DVS)” value stood at 5.08%. For the same compound, the “Post-DVS analysis by XRPD” value in series [1] is “no change”. Moreover, the AUC/Dose in series [3] (PO BID, 50 mg/kg BID) is on record as 761. Further, in series [3] (setting [5]), the AUC(0-t) came to 76100 ng·h/mL and the Cmax worked out at 5630 ng/mL. In series [3] (male, cynomolgus monkey, plasma, po, 50 mg/kg, PO BID, 50 mg/kg BID, after second dose, read-out: Tmax), the Tmax was 7 h.
Turning to `CNc1cc(Nc2cc(F)cc3c2OCCO3)nc2c(NC(=O)N[C@@H]3C[C@@H]3F)cnn12` [Compound 1, Form B, 1-(5-((7-fluoro-2,3-dihydrobenzo[b][1,4]dioxin-5-yl)amino)-7-(methylamino)pyrazolo[1,5-a]pyrimidin-3-yl)-3-((1R,2S)-2-fluorocyclopropyl)urea], in series [1] (95% RH and 25° C.), the “water uptake (DVS)” value amounted to 0.68%. The “Post-DVS analysis by XRPD” value in series [1] is reported as “no change”.

Values taken from US20240010654A1, “CRYSTALLINE FORMS OF A TYK2 INHIBITOR” (Ventyx Biosciences, Inc., priority 2022, published 2024).
